Laboratory results from patent EP4755890A1, “OXO-TRICYCLIC DERIVATIVE AND PHARMACEUTICAL USE THEREOF” (Haisco Pharmaceutical Group Co., Ltd., priority 2023, dated 2025).

What was measured:
[1] = target: T1, hERG potassium channel (Homo sapiens, UniProt Q12809); assay: hERG potassium channel activity assay (manual whole-cell patch clamp); type: cell-based
T1 construct: expressed in transfected cells
Source text: Experimental platform: Manual electrophysiological patch-clamp system
Cell line: Chinese hamster ovary (CHO) cell line stably expressing hERG potassium channel
Experimental method: In Chinese Hamster Ovary (CHO) cells stably expressing hERG potassium channel, whole-cell patch-clamp technique was used to record hERG potassium channel current at room temperature. The glass microelectrodes were pulled from glass electrode blanks (BF150-86-10, Sutter) by a glass microelectrode puller. The tip resistance of the microelectrodes after being filled with intrapipette solution was about 2-5 MΩ. The glass microelectrodes were connected to the patch-clamp amplifier by inserting them into an amplifier probe. The clamping voltage and data recording were controlled and recorded by the pClamp 10 software through a computer, with a sampling frequency of 10 kHz and a filtering frequency of 2 kHz. […]
Compound IC50 was calculated using GraphPad Prism 5 software by fitting according to the following equation: Y = Bottom + (Top−Bottom)/(1+10^(∧)((LogIC50−X)*HillSlope)) [formula] where X is the Log value of the test compound concentration, Y is the inhibition percentage at the corresponding concentration, and Bottom and Top are the minimum and maximum inhibition percentage, respectively.

[2] = tested on: SW48 Xenograft Tumor; assay: In vivo efficacy assay of SW48 xenograft tumor; parameters: species or system BALB/c nude mice; settings: after 14 days of administration
Method: The culture conditions for SW48 cells were as follows: Leibovitz L15 + 10% FBS + 1% penicillin-streptomycin, and the cells were cultured in an incubator without CO2 at 37°C. When the cell confluency reached 80%-90% and the cell number met the requirement, the cells were harvested and counted. 0.1 mL of SW48 cell suspension (5 × 10^6 cells) was subcutaneously inoculated into the right posterior back of female BALB/c nude mice. When the average tumor volume reached 100-150 mm^3, the mice were grouped according to their tumor volumes, with 10 animals per group. The test compounds at different dosages were administered to the animals in each group via intragastric administration once daily. The day of grouping was recorded as D0. During the experiment, the body weights and tumor diameters of the animals were measured three times a week. The tumor volume was calculated according to the formula V = 0.5 × a × b^2, where a and b represent the long diameter and short diameter of the tumor, respectively. The tumor inhibitory efficacy of the test compounds was evaluated by tumor growth inhibition rate (TGI%). [formula]

[3] = target: T2, WRN protein (AA N517-P1238, ICE) (Homo sapiens, UniProt Q14191); assay: Assay for ATPase activity of WRN helicase (ADP-Glo); type: biochemical; settings: inhibition of ATPase activity of WRN helicase; 0.3 nM WRN, 0.2 nM DNA substrate, 10 µM ATP
T2 construct: WRN protein (AA N517-P1238, ICE); purchased ICE
Method: The assay buffer working solution was as follows: 30 mM Tris pH 7.5 + 0.02% BSA + 2 mM MgCl2 + 50 mM NaCl + 0.1% Pluronic® F127 + 1 mM DTT. WRN protein (AA N517-P1238, ICE) was obtained through protein expression and purification in vitro. A single-stranded DNA substrate ([…]) was synthesized in vitro. 1 µL each of compounds at different concentrations, the WRN protein, and the DNA substrate, together with 2 µL of ATP, were added to a 384-well white plate. The working concentrations of the WRN protein, the DNA substrate, and the ATP were 0.3 nM, 0.2 nM, and 10 µM, respectively. The plate was incubated at room temperature for 20 minutes. After the incubation was completed, the detection was performed in accordance with the instructions of the ADP-Glo Assay Kit (Promega), and the chemiluminescence value was read.
The inhibition rate was calculated according to Formula 1, where RLUsample is the readout of the compound well, RLUmax is the readout of the DMSO control well, and RLUmin is the readout of the control well without the WRN protein. Curve fitting was performed via a four-parameter logistic model (log(inhibitor) vs. response -- Variable slope) using GraphPad Prism software, and the IC50 value was calculated. Inhibition% = (1−(RLUsample−RLUmin)/(RLUmax−RLUmin)) × 100% [formula] Table 1. Results of inhibitory activity of test compounds against ATPase activity of WRN helicase

[4] = tested on: HCT-116 cells; assay: HCT-116 cell proliferation inhibition assay (CellTiter-Glo); type: cell-based; settings: Homo sapiens, 96 h, 4 days, read-out: Inhibitory activity against HCT-116 cell proliferation IC50
Method: The culture conditions for HCT-116 cells were as follows: RPMI-1640 + 10% FBS + 1% penicillin-streptomycin, and the cells were cultured in an incubator with 5% CO2 at 37°C. On the first day, the HCT-116 cells in the exponential growth phase were collected and plated in 96-well cell culture plates at a density of 800 cells/well (180 µL/well). The plates were cultured overnight in an incubator with 5% CO2 at 37°C. T0 wells were plated simultaneously during the plating process. The next day, 20 µL of compounds at different concentrations were added to each well (nine compound concentration gradients, one DMSO well, and one blank well; each compound concentration was plated in triplicate), and the final concentration of DMSO in each well was 0.1%. The plates were cultured in an incubator with 5% CO2 at 37°C for 4 days. On the same day of compound addition, the T0 plate was detected using the CellTiter-Glo Kit, and the detected value was recorded as RLU0. After the culture was completed, 100 µL of detection solution (Cell Viability Assay, Promega) was added to each well. […] The chemiluminescence reading was read using a BMG microplate reader (PHERAstar FSX). […] In the formula, RLUcompound is the readout of the drug-treated group, RLUcontrol is the average value of the compound vehicle control group, and RLUBlank is the average value of the blank control group. […]

T1 sequence (Q12809 whole entry): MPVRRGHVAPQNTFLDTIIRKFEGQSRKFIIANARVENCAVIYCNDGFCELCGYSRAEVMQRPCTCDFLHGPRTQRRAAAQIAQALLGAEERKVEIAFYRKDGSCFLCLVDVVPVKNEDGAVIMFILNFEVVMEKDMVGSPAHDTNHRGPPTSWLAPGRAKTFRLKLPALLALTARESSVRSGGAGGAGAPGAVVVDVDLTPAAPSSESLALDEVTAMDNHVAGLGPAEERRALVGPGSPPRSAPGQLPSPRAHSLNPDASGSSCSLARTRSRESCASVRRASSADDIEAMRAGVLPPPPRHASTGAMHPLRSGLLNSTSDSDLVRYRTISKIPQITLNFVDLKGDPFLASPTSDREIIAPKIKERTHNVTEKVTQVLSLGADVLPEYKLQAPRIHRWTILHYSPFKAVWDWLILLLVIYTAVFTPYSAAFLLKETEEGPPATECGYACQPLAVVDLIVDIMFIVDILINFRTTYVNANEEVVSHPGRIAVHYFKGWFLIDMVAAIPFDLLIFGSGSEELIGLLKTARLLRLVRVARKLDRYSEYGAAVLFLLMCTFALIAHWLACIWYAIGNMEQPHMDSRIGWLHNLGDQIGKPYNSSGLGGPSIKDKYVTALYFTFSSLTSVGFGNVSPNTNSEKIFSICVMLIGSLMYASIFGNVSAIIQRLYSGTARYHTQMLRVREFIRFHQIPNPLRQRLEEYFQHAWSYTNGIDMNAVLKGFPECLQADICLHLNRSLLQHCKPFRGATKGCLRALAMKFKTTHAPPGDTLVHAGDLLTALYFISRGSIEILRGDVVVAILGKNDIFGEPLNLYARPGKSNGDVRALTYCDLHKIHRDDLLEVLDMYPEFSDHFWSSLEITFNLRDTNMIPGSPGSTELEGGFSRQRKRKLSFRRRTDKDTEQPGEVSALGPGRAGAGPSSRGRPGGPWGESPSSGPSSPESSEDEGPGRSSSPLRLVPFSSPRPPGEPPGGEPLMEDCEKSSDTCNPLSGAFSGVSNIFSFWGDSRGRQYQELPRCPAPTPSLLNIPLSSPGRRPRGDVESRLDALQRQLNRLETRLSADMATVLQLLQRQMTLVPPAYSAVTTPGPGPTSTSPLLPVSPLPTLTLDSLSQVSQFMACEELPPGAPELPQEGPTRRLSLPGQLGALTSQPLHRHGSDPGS
T2 sequence (Q14191 517-1238): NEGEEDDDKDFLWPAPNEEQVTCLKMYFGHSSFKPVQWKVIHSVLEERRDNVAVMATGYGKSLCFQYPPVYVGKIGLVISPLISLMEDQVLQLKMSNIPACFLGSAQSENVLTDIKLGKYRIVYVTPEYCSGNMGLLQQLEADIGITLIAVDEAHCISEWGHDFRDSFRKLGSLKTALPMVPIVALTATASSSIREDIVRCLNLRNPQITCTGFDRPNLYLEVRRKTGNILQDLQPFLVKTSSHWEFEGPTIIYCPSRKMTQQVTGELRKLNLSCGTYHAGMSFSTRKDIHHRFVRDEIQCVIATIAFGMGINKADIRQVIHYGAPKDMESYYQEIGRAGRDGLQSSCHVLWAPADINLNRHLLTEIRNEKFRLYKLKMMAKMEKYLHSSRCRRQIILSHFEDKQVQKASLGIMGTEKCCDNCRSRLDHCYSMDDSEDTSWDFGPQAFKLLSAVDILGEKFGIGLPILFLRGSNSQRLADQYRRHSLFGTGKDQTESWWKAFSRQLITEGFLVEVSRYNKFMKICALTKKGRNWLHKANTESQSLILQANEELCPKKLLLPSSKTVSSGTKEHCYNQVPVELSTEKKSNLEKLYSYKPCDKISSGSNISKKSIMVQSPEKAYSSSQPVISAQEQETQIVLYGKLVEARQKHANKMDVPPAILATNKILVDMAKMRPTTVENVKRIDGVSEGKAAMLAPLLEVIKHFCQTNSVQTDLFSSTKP

| SMILES | IC50 [1] [µM] | growth of SW48 tumors ([2]; intragastric once daily) | tumor shrinkage ([2]; dosage group of 15 mg/kg) | tumor shrinkage ([2]; dosage group of 50 mg/kg) | IC50 [3] [nM] | IC50 [4] [nM] |
| --- | --- | --- | --- | --- | --- | --- |
| Cc1ncnc(C(=O)N2CCN(c3c4n(c5nc(C6=CCOCC6)nn5c3=O)C(C(=O)Nc3ccc(C(F)(F)F)cc3Cl)CCC4)C[C@H]2C)c1O (single isomer, unassigned) [Compound 8-B] | > 40 |  |  |  |  |  |
| Cc1ncnc(C(=O)N2CCN(c3c4n(c5nc(C6=CCOCC6)nn5c3=O)[C@@H](C(=O)Nc3ccc(C(F)(F)F)cc3Cl)CCC4)CC2)c1O [Compound 1-B] | > 40 | significantly inhibit | tumor shrinkage can be observed | tumor shrinkage can be observed | < 20 | < 100 |
